Data reported in ChEMBL document CHEMBL1151118, “Plant antimutagenic agents, 2. Flavonoids” (J Nat Prod, 1988).

Columns and labels:
Salmonella typhimurium [1] = experiment: Antimutagenic activity in Salmonella Typhimurium […] assessed as inhibition of 2-aminoanthracene-induced mutation at 600 ug/plate after 72 hrs in presence of Ames S-9 fraction; assay type: functional, Salmonella enterica subsp. enterica serovar Typhimurium
[2] = Toxicity in Salmonella Typhimurium […] at 600 ug/plate after 72 hrs by Ames assay in presence of Ames S-9 fraction; assay type: organism-based; settings: salmonella enterica subsp. enterica serovar typhimurium, Salmonella Typhimurium T98 with S-9 fraction
[3] = Toxicity in Salmonella Typhimurium […] at 300 ug/plate after 72 hrs by Ames assay in presence of Ames S-9 fraction; assay type: organism-based; settings: salmonella enterica subsp. enterica serovar typhimurium, Salmonella Typhimurium T98 with S-9 fraction
Salmonella typhimurium [4] = experiment: Antimutagenic activity in Salmonella Typhimurium […] assessed as inhibition of 2-nitroflorene-induced mutation at 150 ug/plate after 72 hrs; assay type: functional, Salmonella enterica subsp. enterica serovar Typhimurium
Salmonella typhimurium [5] = experiment: Antimutagenic activity in Salmonella Typhimurium […] assessed as inhibition of benzo[a]pyrene-induced mutation at 300 ug/plate after 72 hrs in presence of Ames S-9 fraction; assay type: functional, Salmonella enterica subsp. enterica serovar Typhimurium
Salmonella typhimurium [6] = experiment: Antimutagenic activity in Salmonella Typhimurium […] assessed as inhibition of 2-nitroflorene-induced mutation at 300 ug/plate after 72 hrs; assay type: functional, Salmonella enterica subsp. enterica serovar Typhimurium
Salmonella typhimurium [7] = experiment: Antimutagenic activity in Salmonella Typhimurium […] assessed as inhibition of 2-aminoanthracene-induced mutation at 150 ug/plate after 72 hrs in presence of Ames S-9 fraction; assay type: functional, Salmonella enterica subsp. enterica serovar Typhimurium
Salmonella typhimurium [8] = experiment: Antimutagenic activity in Salmonella Typhimurium […] assessed as inhibition of acetylaminofluorene-induced mutation at 150 ug/plate after 72 hrs in presence of Ames S-9 fraction; assay type: functional, Salmonella enterica subsp. enterica serovar Typhimurium
Salmonella typhimurium [9] = experiment: Antimutagenic activity in Salmonella Typhimurium […] assessed as inhibition of acetylaminofluorene-induced mutation at 300 ug/plate after 72 hrs in presence of Ames S-9 fraction; assay type: functional, Salmonella enterica subsp. enterica serovar Typhimurium
Salmonella typhimurium [10] = experiment: Antimutagenic activity in Salmonella Typhimurium […] assessed as inhibition of 2-aminoanthracene-induced mutation at 300 ug/plate after 72 hrs in presence of Ames S-9 fraction; assay type: functional, Salmonella enterica subsp. enterica serovar Typhimurium
Salmonella typhimurium [11] = experiment: Antimutagenic activity in Salmonella Typhimurium […] assessed as inhibition of benzo[a]pyrene-induced mutation at 150 ug/plate after 72 hrs in presence of Ames S-9 fraction; assay type: functional, Salmonella enterica subsp. enterica serovar Typhimurium
Salmonella typhimurium [12] = experiment: Antimutagenic activity in Salmonella Typhimurium […] assessed as inhibition of 2-nitroflorene-induced mutation at 600 ug/plate after 72 hrs; assay type: functional, Salmonella enterica subsp. enterica serovar Typhimurium
Salmonella typhimurium [13] = experiment: Antimutagenic activity in Salmonella Typhimurium […] assessed as inhibition of benzo[a]pyrene-induced mutation at 600 ug/plate after 72 hrs in presence of Ames S-9 fraction; assay type: functional, Salmonella enterica subsp. enterica serovar Typhimurium
Salmonella typhimurium [14] = experiment: Antimutagenic activity in Salmonella Typhimurium […] assessed as inhibition of acetylaminofluorene-induced mutation at 600 ug/plate after 72 hrs in presence of Ames S-9 fraction; assay type: functional, Salmonella enterica subsp. enterica serovar Typhimurium
[15] = Toxicity in Salmonella Typhimurium […] at 150 ug/plate after 72 hrs by Ames assay in presence of Ames S-9 fraction; assay type: organism-based; settings: salmonella enterica subsp. enterica serovar typhimurium, Salmonella Typhimurium T98 with S-9 fraction

Structure (SMILES)	inhibition (INH) (Salmonella typhimurium [1]) [%]	inhibition at 72 h, 600 ug/plate [2] [%]	inhibition at 72 h, 300 ug/plate [3] [%]	inhibition (INH) (Salmonella typhimurium [4]) [%]	inhibition (INH) (Salmonella typhimurium [5]) [%]	inhibition (INH) (Salmonella typhimurium [6]) [%]	inhibition (INH) (Salmonella typhimurium [7]) [%]	inhibition (INH) (Salmonella typhimurium [8]) [%]	inhibition (INH) (Salmonella typhimurium [9]) [%]	inhibition (INH) (Salmonella typhimurium [10]) [%]	inhibition (INH) (Salmonella typhimurium [11]) [%]	inhibition (INH) (Salmonella typhimurium [12]) [%]	inhibition (INH) (Salmonella typhimurium [13]) [%]	inhibition (INH) (Salmonella typhimurium [14]) [%]	inhibition at 72 h, 150 ug/plate [15] [%]
COc1ccc(-c2coc3cc(O)ccc3c2=O)cc1 [FORMONONETIN]	0	–	–	–	–	–	–	–	–	–	–	–	–	–	–
C[C@@H]1O[C@@H](OC[C@H]2O[C@@H](Oc3c(-c4ccc(O)c(O)c4)oc4cc(O)cc(O)c4c3=O)[C@H](O)[C@@H](O)[C@@H]2O)[C@H](O)[C@H](O)[C@H]1O [RUTIN]	0	< 20	< 20	–	–	–	–	–	–	–	–	–	–	–	–
COc1cc(O)c2c(=O)c(O)c(-c3ccc(O)c(O)c3)oc2c1 [RHAMNETIN]	78	–	–	34	45	41	0	11	52	0	7	–	–	–	–
O=c1cc(-c2ccc(O)cc2)oc2cc(O)cc(O)c12 [APIGENIN]	10	–	–	60	64	70	0	0	14	0	67	88	75	0	–
COc1ccc(-c2cc(=O)c3c(OC)c(OC)c(OC)c(OC)c3o2)cc1 [TANGERETIN]	42	50	< 20	–	–	–	–	–	–	–	–	–	–	–	–
CC(C)=CCc1cc2c(cc1O)O[C@H](c1ccc(O)cc1)CC2=O [BAVACHIN]	62	–	50	52	0	72	98	0	0	98	0	–	–	–	< 20
COc1ccc(-c2coc3cc(O)cc(O)c3c2=O)cc1 [BIOCHANIN]	57	< 20	< 20	–	–	–	–	–	–	–	–	–	–	–	–
COc1ccc(-c2cc(=O)c3c(OC)c(OC)c(OC)c(OC)c3o2)cc1OC [NOBILETIN]	43	< 20	< 20	–	–	–	–	–	–	–	–	–	–	–	–
O=c1c(O)c(-c2ccccc2)oc2cc(O)cc(O)c12 [GALANGIN]	97	–	–	–	–	–	–	–	–	–	–	–	–	–	–
O=c1c(O)c(-c2ccc(O)cc2O)oc2cc(O)cc(O)c12 [MORIN]	0	< 30	< 20	–	–	–	–	–	–	–	–	–	–	–	–
C[C@@H]1O[C@@H](O[C@H]2[C@H](Oc3cc(O)c4c(c3)O[C@H](c3ccc(O)cc3)CC4=O)O[C@H](CO)[C@@H](O)[C@@H]2O)[C@H](O)[C@H](O)[C@H]1O [NARINGIN]	38	50	< 30	–	–	–	–	–	–	–	–	–	–	–	–
CC(C)=CCc1cc(-c2coc3cc(O)ccc3c2=O)ccc1O [NEOBAVAISOFLAVONE]	97	> 90	> 90	15	74	53	98	2	72	67	17	66	97	96	–
C=C[C@@](C)(/C=C/c1ccc(O)cc1)CCC=C(C)C [BAKUCHIOL]	81	< 30	< 20	75	28	79	91	0	0	84	0	92	43	0	< 20
COc1ccc([C@@H]2CC(=O)c3c(O)cc(O[C@@H]4O[C@H](CO[C@@H]5O[C@@H](C)[C@H](O)[C@@H](O)[C@H]5O)[C@@H](O)[C@H](O)[C@H]4O)cc3O2)cc1O [HESPERIDIN]	13	< 20	< 20	–	–	–	–	–	–	–	–	–	–	–	–
CC(C)=CCc1c(O)ccc(C(=O)/C=C/c2ccc(O)cc2)c1O [ISOBAVACHALCONE]	86	> 90	> 90	–	–	–	–	–	–	–	–	–	–	–	–
O=c1c(O)c(-c2ccc(O)c(O)c2)oc2cc(O)cc(O)c12 [QUERCETIN]	20	50	50	0	0	0	16	0	0	24	0	0	0	0	–
